Patent US6521654B2, “Substituted imidazolidine derivatives, their preparation, their use and pharmaceutical preparations including them” (Aventis Pharma Deutschland GmbH, priority 1997, dated 2003)

Biological target: T1, interaction between VCAM-1 and VLA-4 (Homo sapiens, UniProt P05556+P13612)
T1 construct: supplied in their natural form as surface molecules on human U937 cells; host or cells: U937 cells carry endogenous VLA-4; The partner hVCAM-1(1-3)-IgG was made in house in transfected COS cells (ATCC CRL1651) and used as culture supernatant
T1 sequence (P13612 34-1032): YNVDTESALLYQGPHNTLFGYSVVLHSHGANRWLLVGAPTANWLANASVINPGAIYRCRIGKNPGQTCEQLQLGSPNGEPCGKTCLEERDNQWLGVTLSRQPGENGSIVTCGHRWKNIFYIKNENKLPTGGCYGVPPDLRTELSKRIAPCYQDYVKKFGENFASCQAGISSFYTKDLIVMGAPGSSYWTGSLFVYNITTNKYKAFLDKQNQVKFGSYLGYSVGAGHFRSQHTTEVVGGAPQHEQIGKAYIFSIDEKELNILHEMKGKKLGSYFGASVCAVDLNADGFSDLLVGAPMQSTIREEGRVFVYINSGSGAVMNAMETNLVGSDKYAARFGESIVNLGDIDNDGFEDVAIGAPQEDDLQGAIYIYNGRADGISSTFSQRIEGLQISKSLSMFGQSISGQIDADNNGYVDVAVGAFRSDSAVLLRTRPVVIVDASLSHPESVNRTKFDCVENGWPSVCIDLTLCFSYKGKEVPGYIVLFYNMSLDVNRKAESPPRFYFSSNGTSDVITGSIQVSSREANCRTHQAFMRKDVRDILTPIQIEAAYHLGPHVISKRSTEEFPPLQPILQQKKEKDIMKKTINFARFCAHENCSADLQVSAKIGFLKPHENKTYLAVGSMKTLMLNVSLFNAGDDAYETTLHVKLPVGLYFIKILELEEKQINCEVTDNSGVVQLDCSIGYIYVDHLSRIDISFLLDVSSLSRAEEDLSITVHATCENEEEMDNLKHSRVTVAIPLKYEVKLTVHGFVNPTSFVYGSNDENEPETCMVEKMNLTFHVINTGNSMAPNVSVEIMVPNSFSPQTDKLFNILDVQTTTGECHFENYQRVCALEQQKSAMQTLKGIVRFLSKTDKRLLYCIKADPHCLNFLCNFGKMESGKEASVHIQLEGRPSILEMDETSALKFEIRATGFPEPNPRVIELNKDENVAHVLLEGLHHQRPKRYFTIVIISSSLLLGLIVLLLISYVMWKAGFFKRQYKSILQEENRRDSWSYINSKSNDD
T1 sequence (P05556 21-798): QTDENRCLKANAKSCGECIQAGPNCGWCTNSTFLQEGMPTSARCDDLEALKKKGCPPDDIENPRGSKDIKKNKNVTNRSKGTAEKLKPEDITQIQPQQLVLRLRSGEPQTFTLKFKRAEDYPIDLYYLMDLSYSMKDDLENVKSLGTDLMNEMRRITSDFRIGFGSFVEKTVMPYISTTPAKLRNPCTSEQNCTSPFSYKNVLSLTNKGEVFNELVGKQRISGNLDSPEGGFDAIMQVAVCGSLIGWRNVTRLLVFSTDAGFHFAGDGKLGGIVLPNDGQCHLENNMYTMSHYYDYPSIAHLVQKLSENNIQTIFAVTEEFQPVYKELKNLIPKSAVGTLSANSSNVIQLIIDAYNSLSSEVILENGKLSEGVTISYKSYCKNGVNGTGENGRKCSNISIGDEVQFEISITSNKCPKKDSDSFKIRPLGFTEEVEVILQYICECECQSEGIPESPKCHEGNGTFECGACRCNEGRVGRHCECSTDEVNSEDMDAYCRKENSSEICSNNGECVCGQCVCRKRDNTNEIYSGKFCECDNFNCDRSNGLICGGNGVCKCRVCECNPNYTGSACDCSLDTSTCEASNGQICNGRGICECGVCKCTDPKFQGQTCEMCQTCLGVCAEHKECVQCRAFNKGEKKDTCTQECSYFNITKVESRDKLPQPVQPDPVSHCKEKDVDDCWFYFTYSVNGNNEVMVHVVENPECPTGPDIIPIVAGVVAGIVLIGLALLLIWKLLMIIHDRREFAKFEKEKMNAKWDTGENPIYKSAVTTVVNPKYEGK
Test: U937/VCAM-1 cell adhesion test (adhesion of U937 cells to hVCAM-1(1-3)-IgG)
Assay type: cell-based
Conditions: concentration leading to 50% inhibition of adhesion of human U937 cells (ATCC CRL 1593) to hVCAM-1(1-3)-IgG
Description: The test method used for the activity of the compounds of the formula I on the interaction between VCAM-1 and VLA-4 is the assay described below which is specific for this interaction. The cellular binding components, i.e., the VLA-4 integrins, are supplied in their natural form as surface molecules on human U937 cells (ATCC CRL 1593). which belong to the leucocytes group. The specific binding components used are genetically engineered recombinant soluble fusion proteins, consisting of the extracytoplasmatic domain of human VCAM-1 and the constant region of a human immunoglobulin of the subclass IgG1.
Assay for the Measurement of the Adhesion of U937 Cells (ATCC CRL 1593) to hVCAM-1(1-3)-IgG
1. Preparation of Human VCAM-1 (1-3)-IgG and Human CD4-IgG
A genetic construct for the expression of the extracellular domain of human VCAM-1, associated with the genetic sequence of the heavy chain of human immunoglobulin IgG1 (hinge, CH2 and CH3 regions), from Dr. Brian Seed, Massachusetts General Hospital. Boston, USA was employed (cf. Damle and Aruffo, Proc. Natl. Acad. Sci. USA 1991, 88, 6403-6407). The soluble fusion protein hVCAM-1(1-3)-IgG contained the three amino-terminal extracellular immunoglobulin-like domains of human VCAM-1 (Damle and Aruffo, Proc. Natl. Acad. Sci. USA 1991, 88, 6403-6407). CD4-IgG (Zettimeissl et al., DNA and Cell Biology 1990, 9, 347) served as a fusion protein for negative controls. The recombinant proteins were expressed as soluble proteins after DEAE/dextran-mediated DNA transfection in COS cells (ATCC CRL1651) according to standard procedures (Ausubel et al., Current Protocols in Molecular Biology, John Wiley & Sons, Inc., 1994).
2. Assay for the Measurement of the Adhesion of U937 Cells to hVCAM-1 (1-3)-IgG
2.1 96-well microtiter test plates (Nunc Maxisorb) were incubated at room temperature for 1 hour with 100 μl/well of a goat-anti-human IgG antibody solution (10 μg/ml in 50 mM tris, pH 9.5). After removal of the antibody solution, washing was carried out once with PBS.
2.2 150 μl/well of a blocking buffer (1% BSA in PBS) were incubated on the plates at room temperature for 0.5 hour. After removal of the blocking buffer, washing was carried out once with PBS.
2.3 100 μl per well of a cell culture supernatant of transfected COS cells were incubated on the plates at room temperature for 1.5 hours. The COS cells were transfected with a plasmid which codes for the three N-terminal immunoglobulin-like domains of VCAM-1, coupled to the Fc part of human IgG1 (hVCAM-1 (1-3)-IgG). The content of hVCAM-1 (1-3)-IgG was about 0.5-1 μg/ml. After removal of the culture supernatant, washing was carried out once with PBS.
2.4 The plates were incubated at room temperature for 20 minutes with 100 μl/well of Fc receptor blocking buffer (1 mg/ml of γ-globulin, 100 mM NaCl, 100 μM MgCl2, 100 μM MnCl2, 100 μM CaCl2, 1 mg/ml of BSA in 50 mM HEPES, pH 7.5). After removal of the Fc receptor blocking buffer, washing was carried out once with PBS.
2.5 20 μl of binding buffer (100 mM NaCl, 100 μM MgCl2, 100 μM MnCl2, 100 μM CaCl2, 1 mg/ml of BSA in 50 mM HEPES, pH 7.5) were initially introduced, and the substances to be tested were added in 10 μl of binding buffer and incubated for 20 minutes. The controls used were antibodies against VCAM-1 (BBT, No. BBA6) and against VLA-4 (immunotech, No. 0764).
2.6 U937 cells were incubated in Fc receptor blocking buffer for 20 minutes and then added by pipette in a concentration of 1×10^6/ml and in an amount of 100 μl per well ([…]).
2.7 The plates were slowly immersed at an angle of 45° in stop buffer (100 mM NaCl, 100 μM MgCl2, 100 μM MnCl2, 100 μM CaCl2 in 25 mM tris, pH 7.5) and shaken off. The process was repeated.
2.8 50 μl/well of a dye solution (16.7 μg/ml of Hoechst Dye 33258, 4% formaldehyde, 0.5% triton X-100 in PBS) were then incubated on the plates for 15 minutes. […]

| Structure (SMILES) | IC50 [nM] |
| --- | --- |
| Cc1ccccc1NC(=O)Nc1ccc(CN2CC(=O)N(CC(=O)N[C@H](C)CC(=O)O)C2=O)cc1 [Example 26, (R)-3-(2-(3-(4-(3-(2-Methylphenyl)ureido)benzyl)-2,5-dioxoimidazolidin-1-yl)-acetylamino)-3-methylpropionic Acid] | 2900 |
| Cc1ccccc1NC(=O)Nc1ccc(CN2C(=O)N(CC(=O)NC(C)(C)CC(=O)O)C(=O)C2(C)C)cc1 [Example 91, 3-(2-(4,4-Dimethyl-3-(4-(3-(2-methylphenyl)ureido)benzyl)-2,5-dioxoimidazolidin-1-yl)acetylamino)-3,3-dimethylpropionic Acid] | 210 |
| Cc1ccccc1NC(=O)Nc1ccc(CN2C(=O)N([C@@H](CC(C)C)C(=O)NCC(=O)O)C(=O)C2(C)C)cc1 [Example 10, 2-((S)-2-(4,4-Dimethyl-3-(4-(3-(2-methylphenyl)ureido)benzyl)-2,5-dioxoimidazolidin-1-yl)-2-(2-methylpropyl)acetylamino)acetic Acid] | 600 |
| Cc1ccccc1NC(=O)Nc1ccc(CN2C(=O)N([C@@H](C)C(=O)N[C@H](C)CC(=O)O)C(=O)C2(C)C)cc1 [Example 90, (R)-3-((S)-2-(4,4-Dimethyl-3-(4-(3-(2-methylphenyl)ureido)benzyl)-2,5-dioxoimidazolidin-1-yl)-2-methyl-acetylamino)-3-methylpropionic Acid] | 82 |
| C[C@H](CC(=O)O)NC(=O)CN1C(=O)CN(Cc2ccc(NC(=O)Nc3ccccc3Cl)cc2)C1=O [Example 30, (R)-3-(2-(3-(4-(3-(2-Chlorophenyl)ureido)benzyl)-2,5-dioxoimidazolidin-1-yl)-acetylamino)-3-methylpropionic Acid] | 580 |
| Cc1cccc(NC(=O)Nc2ccc(CN3C(=O)N(CC(=O)NC(C)CC(=O)O)C(=O)C3(C)C)cc2)c1C (stereo not drawn) [Example 34] | 490 |
| Cc1ccccc1NC(=O)Nc1ccc(CN2C(=O)N([C@@H](CC(C)C)C(=O)N[C@@H](CC(=O)O)c3c(F)c(F)c(F)c(F)c3F)C(=O)C2(C)C)cc1 [Example 187] | 25 |
| Cc1ccccc1NC(=O)Nc1ccc(CN2CC(=O)N(CC(=O)N[C@@H](CC(=O)O)C(=O)NC3C4CC5CC(C4)CC3C5)C2=O)cc1 (stereo partly drawn) [Example 21] | 520 |
| Cc1ccccc1NC(=O)Nc1ccc(CN2C(=O)N(C(CC(C)C)C(=O)N[C@@H](CC(=O)O)C(=O)N[C@H](C(=O)OC(C)(C)C)c3ccccc3)C(=O)C2(C)c2ccccc2)cc1 (mixture of isomers) [Example 219] | 175 |
| Cc1cccc(C)c1NC(=O)Nc1ccc(CN2C(=O)N(CC(=O)N[C@@H](CC(=O)O)c3ccccc3)C(=O)C2(C)C)cc1 [Example 42] | 470 |
| CC(C)C[C@@H](C(=O)N[C@H](C)CC(=O)O)N1C(=O)N(Cc2ccc(NC(=O)Nc3ccccc3)cc2)C(C)(C)C1=O [Example 6, (R)-3-((S)-2-(4,4-Dimethyl-3-(4-(3-phenylureido)benzyl)2,5-dioxoimidazolidin-1-yl)-2-(2-methylpropyl)acetylamino)-3-methylpropionic Acid] | 30 |
| COc1ccccc1NC(=O)Nc1ccc(CN2C(=O)N([C@@H](CC(C)C)C(=O)N[C@@H](CC(=O)O)C(=O)N[C@H](C(=O)O)c3ccccc3)C(=O)C2(C)C)cc1 [Example 61] | 24.5 |
| C[C@H](CC(=O)O)NC(=O)[C@H](CC1CC1)N1C(=O)N(Cc2ccc(NC(=O)Nc3ccccc3)cc2)C(C)(C)C1=O [Example 92, (R)-3-((S)-2-(4,4-Dimethyl-3-(4-(3-phenylureido)benzyl)-2,5-dioxoimidazolidin-1-yl)-2-cyclopropylmethylacetylamino)-3-methylpropionic Acid] | 40 |
| COc1cccc(C(CC(=O)O)NC(=O)C(CC(C)C)N2C(=O)N(Cc3ccc(NC(=O)Nc4ccccc4C)cc3)C(C)(c3ccccc3)C2=O)c1OC (stereo not drawn) [Example 201] | 25 |

These reach a lower IC50. Values come first.

| IC50 [nM] | Structure (SMILES) |
| --- | --- |
| 2.3 | CC(C)C[C@@H](C(=O)N[C@@H](CC(=O)O)C(=O)N[C@H](C(=O)O)c1ccccc1)N1C(=O)N(Cc2ccc(NC(=O)Nc3ccccc3F)cc2)C(C)(C)C1=O [Example 67] |
| 23 | CCCCS(=O)(=O)NC(CNC(=O)C(CC(C)C)N1C(=O)N(Cc2ccc(NC(=O)Nc3ccccc3C)cc2)C(C)(c2ccccc2)C1=O)C(=O)O (racemic) [Example 195, (RS)-2-Butylsulfonylamino-3-((RS)-2-((RS)-4-methyl-4-phenyl-3-(4-(3-(2-methyl-phenyl)ureido)benzyl)-2,5-dioxoimidazolidin-1-yl)-2-(2-methylpropyl)acetylamino)propionic Acid] |
| 1.5 | Cc1ccccc1NC(=O)Nc1ccc(CN2C(=O)N([C@@H](CC(C)C)C(=O)N[C@@H](CC(=O)O)c3ccccc3)C(=O)C2(C)C)cc1 [Example 17, (S)-3-((S)-2-(4,4-Dimethyl-3-(4-(3-(2-methylphenyl)ureido)benzyl)-2,5-dioxoimidazolidin-1-yl)-2-(2-methylpropyl)acetylamino)-3-phenylpropionic Acid] |
| 6 | CC(C)C[C@@H](C(=O)N[C@@H](CC(=O)O)C(=O)NC1C2CC3CC(C2)CC1C3)N1C(=O)N(Cc2ccc(NC(=O)Nc3ccccc3)cc2)C(C)(C)C1=O (stereo partly drawn) [Example 25] |
| 16 | CN(C(=O)CN1C(=O)N(Cc2ccc(NC(=O)Nc3ccccc3)cc2)C(C)(C)C1=O)[C@@H](CC(=O)O)C(=O)NC1C2CC3CC(C2)CC1C3 (stereo partly drawn) [Example 23] |
| 2.5 | Cc1ccccc1NC(=O)Nc1ccc(CN2C(=O)N([C@@H](CC(C)C)C(=O)N[C@@H](CC(=O)O)c3ccc4c(c3)OCO4)C(=O)C2(C)C)cc1 [Example 7, (S)-3-((S)-2-(4,4-Dimethyl-3-(4-(3-(2-methylphenyl)ureido)benzyl)-2,5-dioxoimidazolidin-1-yl)-(2-methylpropyl)acetylamino)-3-(3,4-methylenedioxyphenyl)propionic Acid] |
| 7 | Cc1ccccc1NC(=O)Nc1ccc(CN2C(=O)N(CC(=O)N[C@@H](CC(=O)O)c3ccc4c(c3)OCO4)C(=O)C2(C)C)cc1 [Example 93, (S)-3-(2-(4,4-Dimethyl-3-(4-(3-(2-methylphenyl)ureido)benzyl)-2,5-dioxoimidazolidin-1-yl)acetylamino)-3-(3,4-methylenedioxyphenyl)propionic Acid] |
| 2.9 | Cc1ccccc1NC(=O)Nc1ccc(CN2C(=O)N([C@@H](CC(C)C)C(=O)N[C@@H](CC(=O)O)c3cccc4ccccc34)C(=O)C2(C)C)cc1 [Example 186] |
| 3 | CC(C)C[C@@H](C(=O)N[C@@H](CC(=O)O)c1ccccc1)N1C(=O)N(Cc2ccc(NC(=O)Nc3ccccc3)cc2)C(C)(C)C1=O [Example 19] |
| 5 | CC(C)C[C@@H](C(=O)N[C@@H](CC(=O)O)c1ccc2c(c1)OCO2)N1C(=O)N(Cc2ccc(NC(=O)Nc3ccccc3)cc2)C(C)(C)C1=O [Example 5, (S)-3-((S)-2-(4,4-Dimethyl-3-(4-(3-phenylureido)benzyl)-2,5-dioxoimidazolidin-1-yl)-2-(2-methylpropyl)acetylamino)-3-(3,4-methylenedioxyphenyl)propionic Acid] |
